Reference: patent US20100222269A1, “IMPROVED DERIVATIVES OF AMYLIN” (priority 2007, published 2010)
pEC50: −log10 of the molar value. Starred links: 1 amine or outer side, 2 acyl side, 3 side chain; linkers in the order of their positions; H or OH if unused. Positions of bridges follow the written chain, without caps; N, C: chain ends. Residues, ends and D or L forms follow the SMILES beside them. *: point of attachment. C20 diacid = O=C(O)CCCCCCCCCCCCCCCCCCC(=O)*; γGlu = O=C(O)[C@H](CCC(=O)[*:2])N[*:1]

Molecular target: T1, Amylin 3(a) receptor (human calcitonin receptor (CTa) with RAMP-3) (Homo sapiens, UniProt O60896+P30988)
T1 construct: expressed in transfected cells; host or cells: BHK570 (baby hamster kidney) cells, stably transfected, with CRE-luciferase reporter
T1 sequence (O60896 24-148): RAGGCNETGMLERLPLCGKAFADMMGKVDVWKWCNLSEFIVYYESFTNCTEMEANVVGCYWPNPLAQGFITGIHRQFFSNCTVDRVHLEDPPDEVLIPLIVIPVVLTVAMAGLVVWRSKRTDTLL
T1 sequence (P30988 25-474): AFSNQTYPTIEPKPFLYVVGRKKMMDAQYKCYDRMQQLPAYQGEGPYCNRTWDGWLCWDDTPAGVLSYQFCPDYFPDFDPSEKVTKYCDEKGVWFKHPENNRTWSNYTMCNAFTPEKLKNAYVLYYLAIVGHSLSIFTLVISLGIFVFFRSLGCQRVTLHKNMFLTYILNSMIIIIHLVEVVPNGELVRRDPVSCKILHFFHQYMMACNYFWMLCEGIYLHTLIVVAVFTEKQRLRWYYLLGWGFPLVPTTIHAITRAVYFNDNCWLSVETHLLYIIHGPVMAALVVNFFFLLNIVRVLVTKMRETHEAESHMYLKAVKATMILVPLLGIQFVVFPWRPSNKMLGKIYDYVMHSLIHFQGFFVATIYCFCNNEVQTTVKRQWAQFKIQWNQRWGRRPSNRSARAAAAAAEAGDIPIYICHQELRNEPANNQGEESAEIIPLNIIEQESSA
Experiment: Amylin luciferase assay (CRE-luciferase reporter in BHK Amylin 3(a)//CRE-luc cells)
Type: cell-based
Conditions: BHK570 cells with human calcitonin receptor (CTa), RAMP-3 and CRE-luciferase reporter; 4 hours incubation; read-out: Potency luciferase assay
Outline: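 BHK570 cells stably expressing human calcitonin receptor (CTa), RAMP-3 and a CRE-luciferase reporter, about 20.000 cells/well, were exposed to standard or sample for 4 h at 37° C in phenol-red-free DMEM with 10% FBS and 10 mM Hepes pH 7,4. Luminescence was read after 30 min with LucLite at room temperature.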

| pEC50 | SMILES |
| --- | --- |
| 10.00 | CC[C@H](C)[C@H](NC(=O)[C@@H]1CCCN1C(=O)CNC(=O)[C@H](Cc1ccccc1)NC(=O)[C@H](CC(N)=O)NC(=O)[C@H](CC(N)=O)NC(=O)[C@H](CO)NC(=O)[C@H](CO)NC(=O)[C@H](Cc1c[nH]cn1)NC(=O)[C@@H](NC(=O)[C@H](CC(C)C)NC(=O)[C@H](Cc1ccccc1)NC(=O)[C@H](CC(N)=O)NC(=O)[C@H](C)NC(=O)[C@H](CC(C)C)NC(=O)[C@H](CCCNC(=N)N)NC(=O)[C@H](CCC(N)=O)NC(=O)[C@@H](NC(=O)[C@H](C)NC(=O)[C@@H]1CSSC[C@H](NC(=O)CC[C@H](NC(=O)CCCCCCCCCCCCCCCCCCC(=O)O)C(=O)O)C(=O)N[C@@H](CC(N)=O)C(=O)N[C@@H]([C@@H](C)O)C(=O)N[C@@H](C)C(=O)N[C@@H]([C@@H](C)O)C(=O)N1)[C@@H](C)O)C(C)C)C(=O)N[C@@H](CC(C)C)C(=O)N1CCC[C@H]1C(=O)N1CCC[C@H]1C(=O)N[C@H](C(=O)N[C@@H](CC(N)=O)C(=O)N[C@H](C(=O)NCC(=O)N[C@@H](CO)C(=O)N[C@@H](CC(N)=O)C(=O)N[C@H](C(=O)N[C@@H](Cc1ccc(O)cc1)C(N)=O)[C@@H](C)O)C(C)C)[C@@H](C)O [Example 43, N-alpha-[(S)-4-carboxy-4-(19-carboxynonadecanoylamino)butyryl]-pramlintide (2-37)] ({C20 diacid-γGlu}-CNTATCATQRLANFLVHSSNNFGPILPPTNVGSNTY-NH2; disulfide 1-6; C-terminus assumed) |
| 10.40 | CC[C@H](C)[C@H](NC(=O)[C@@H]1CCCN1C(=O)CNC(=O)[C@H](Cc1ccccc1)NC(=O)[C@H](CC(N)=O)NC(=O)[C@H](CC(N)=O)NC(=O)[C@H](CO)NC(=O)[C@H](CO)NC(=O)[C@H](Cc1c[nH]cn1)NC(=O)[C@@H](NC(=O)[C@H](CC(C)C)NC(=O)[C@H](Cc1ccccc1)NC(=O)[C@H](CC(N)=O)NC(=O)[C@H](C)NC(=O)[C@H](CC(C)C)NC(=O)[C@H](CCCNC(=N)N)NC(=O)[C@H](CCC(N)=O)NC(=O)[C@@H](NC(=O)[C@H](C)NC(=O)[C@@H]1CSSC[C@H](NC(=O)[C@H](CCCNC(=N)N)NC(=O)CC[C@H](NC(=O)CCCCCCCCCCCCCCCCCCC(=O)O)C(=O)O)C(=O)N[C@@H](CC(N)=O)C(=O)N[C@@H]([C@@H](C)O)C(=O)N[C@@H](C)C(=O)N[C@@H]([C@@H](C)O)C(=O)N1)[C@@H](C)O)C(C)C)C(=O)N[C@@H](CC(C)C)C(=O)N1CCC[C@H]1C(=O)N1CCC[C@H]1C(=O)N[C@H](C(=O)N[C@@H](CC(N)=O)C(=O)N[C@H](C(=O)NCC(=O)N[C@@H](CO)C(=O)N[C@@H](CC(N)=O)C(=O)N[C@H](C(=O)N[C@@H](Cc1ccc(O)cc1)C(N)=O)[C@@H](C)O)C(C)C)[C@@H](C)O [Example 45, N-alpha-[(S)-4-carboxy-4-(19-carboxynonadecanoylamino)butyryl]-[Arg1]-pramlintide (1-37)] ({C20 diacid-γGlu}-RCNTATCATQRLANFLVHSSNNFGPILPPTNVGSNTY-NH2; disulfide 2-7; C-terminus assumed) |
| 10.00 | CC[C@H](C)[C@H](NC(=O)[C@@H]1CCCN1C(=O)CNC(=O)[C@H](Cc1ccccc1)NC(=O)[C@H](CC(N)=O)NC(=O)[C@H](CC(N)=O)NC(=O)[C@H](CO)NC(=O)[C@H](CO)NC(=O)[C@H](Cc1c[nH]cn1)NC(=O)[C@@H](NC(=O)[C@H](CC(C)C)NC(=O)[C@H](Cc1ccccc1)NC(=O)[C@H](CC(N)=O)NC(=O)[C@H](C)NC(=O)[C@H](CC(C)C)NC(=O)[C@H](CCCNC(=N)N)NC(=O)[C@H](CCC(N)=O)NC(=O)[C@@H](NC(=O)[C@H](C)NC(=O)[C@@H]1CSSC[C@H](NC(=O)[C@H](CCCNC(=N)N)NC(=O)[C@H](CCC(=O)O)NC(=O)CCCCCCCCCCCCCCCCCCC(=O)O)C(=O)N[C@@H](CC(N)=O)C(=O)N[C@@H]([C@@H](C)O)C(=O)N[C@@H](C)C(=O)N[C@@H]([C@@H](C)O)C(=O)N1)[C@@H](C)O)C(C)C)C(=O)N[C@@H](CC(C)C)C(=O)N1CCC[C@H]1C(=O)N1CCC[C@H]1C(=O)N[C@H](C(=O)N[C@@H](CC(N)=O)C(=O)N[C@H](C(=O)NCC(=O)N[C@@H](CO)C(=O)N[C@@H](CC(N)=O)C(=O)N[C@H](C(=O)N[C@@H](Cc1ccc(O)cc1)C(N)=O)[C@@H](C)O)C(C)C)[C@@H](C)O [Example 46, N-alpha-(19-carboxynonadecanoyl)-Glu-[Arg1]-pramlintide (1-37)] ({C20 diacid}-ERCNTATCATQRLANFLVHSSNNFGPILPPTNVGSNTY-NH2; disulfide 3-8; C-terminus assumed) |
| 10.00 | CC[C@H](C)[C@H](NC(=O)[C@@H]1CCCN1C(=O)CNC(=O)[C@H](Cc1ccccc1)NC(=O)[C@H](CC(N)=O)NC(=O)[C@H](CC(N)=O)NC(=O)[C@H](CO)NC(=O)[C@H](CO)NC(=O)[C@H](Cc1c[nH]cn1)NC(=O)[C@@H](NC(=O)[C@H](CC(C)C)NC(=O)[C@H](Cc1ccccc1)NC(=O)[C@H](CC(N)=O)NC(=O)[C@H](C)NC(=O)[C@H](CC(C)C)NC(=O)[C@H](CCCNC(=N)N)NC(=O)[C@H](CCC(N)=O)NC(=O)[C@@H](NC(=O)[C@H](C)NC(=O)[C@@H]1CSSC[C@H](NC(=O)[C@H](CCCNC(=N)N)NC(=O)[C@H](CCCNC(=N)N)NC(=O)CC[C@H](NC(=O)CCCCCCCCCCCCCCCCCCC(=O)O)C(=O)O)C(=O)N[C@@H](CC(N)=O)C(=O)N[C@@H]([C@@H](C)O)C(=O)N[C@@H](C)C(=O)N[C@@H]([C@@H](C)O)C(=O)N1)[C@@H](C)O)C(C)C)C(=O)N[C@@H](CC(C)C)C(=O)N1CCC[C@H]1C(=O)N1CCC[C@H]1C(=O)N[C@H](C(=O)N[C@@H](CC(N)=O)C(=O)N[C@H](C(=O)NCC(=O)N[C@@H](CO)C(=O)N[C@@H](CC(N)=O)C(=O)N[C@H](C(=O)N[C@@H](Cc1ccc(O)cc1)C(N)=O)[C@@H](C)O)C(C)C)[C@@H](C)O [Example 47, N-alpha-[(S)-4-carboxy-4-(19-carboxynonadecanoylamino)butyryl]-Arg-[Arg1]-pramlintide (1-37)] ({C20 diacid-γGlu}-RRCNTATCATQRLANFLVHSSNNFGPILPPTNVGSNTY-NH2; disulfide 3-8; C-terminus assumed) |
| 10.00 | CC[C@H](C)[C@H](NC(=O)[C@@H]1CCCN1C(=O)CNC(=O)[C@H](Cc1ccccc1)NC(=O)[C@H](CC(N)=O)NC(=O)[C@H](CC(N)=O)NC(=O)[C@H](CO)NC(=O)[C@H](CO)NC(=O)[C@H](Cc1c[nH]cn1)NC(=O)[C@@H](NC(=O)[C@H](CC(C)C)NC(=O)[C@H](Cc1ccccc1)NC(=O)[C@H](CC(N)=O)NC(=O)[C@H](C)NC(=O)[C@H](CC(C)C)NC(=O)[C@H](CCCNC(=N)N)NC(=O)[C@H](CCC(N)=O)NC(=O)[C@@H](NC(=O)[C@H](C)NC(=O)[C@@H]1CSSC[C@H](NC(=O)[C@H](CCCCN)NC(=O)[C@H](CCCCN)NC(=O)CC[C@H](NC(=O)CCCCCCCCCCCCCCCCCCC(=O)O)C(=O)O)C(=O)N[C@@H](CC(N)=O)C(=O)N[C@@H]([C@@H](C)O)C(=O)N[C@@H](C)C(=O)N[C@@H]([C@@H](C)O)C(=O)N1)[C@@H](C)O)C(C)C)C(=O)N[C@@H](CC(C)C)C(=O)N1CCC[C@H]1C(=O)N1CCC[C@H]1C(=O)N[C@H](C(=O)N[C@@H](CC(N)=O)C(=O)N[C@H](C(=O)NCC(=O)N[C@@H](CO)C(=O)N[C@@H](CC(N)=O)C(=O)N[C@H](C(=O)N[C@@H](Cc1ccc(O)cc1)C(N)=O)[C@@H](C)O)C(C)C)[C@@H](C)O [Example 48, N-alpha-[(S)-4-carboxy-4-(19-carboxynonadecanoylamino)butyryl]-Lys-pramlintide (1-37)] ({C20 diacid-γGlu}-KKCNTATCATQRLANFLVHSSNNFGPILPPTNVGSNTY-NH2; disulfide 3-8) |
| 9.70 | CC[C@H](C)[C@H](NC(=O)[C@@H]1CCCN1C(=O)CNC(=O)[C@H](Cc1ccccc1)NC(=O)[C@H](CC(N)=O)NC(=O)[C@H](CC(N)=O)NC(=O)[C@H](CO)NC(=O)[C@H](CO)NC(=O)[C@H](Cc1c[nH]cn1)NC(=O)[C@@H](NC(=O)[C@H](CC(C)C)NC(=O)[C@H](Cc1ccccc1)NC(=O)[C@H](CC(N)=O)NC(=O)[C@H](C)NC(=O)[C@H](CC(C)C)NC(=O)[C@H](CCCNC(=N)N)NC(=O)[C@H](CCC(N)=O)NC(=O)[C@@H](NC(=O)[C@H](C)NC(=O)[C@@H]1CSSC[C@H](NC(=O)[C@H](CCCCN)NC(=O)[C@H](CCCNC(=N)N)NC(=O)CC[C@H](NC(=O)CCCCCCCCCCCCCCCCCCC(=O)O)C(=O)O)C(=O)N[C@@H](CC(N)=O)C(=O)N[C@@H]([C@@H](C)O)C(=O)N[C@@H](C)C(=O)N[C@@H]([C@@H](C)O)C(=O)N1)[C@@H](C)O)C(C)C)C(=O)N[C@@H](CC(C)C)C(=O)N1CCC[C@H]1C(=O)N1CCC[C@H]1C(=O)N[C@H](C(=O)N[C@@H](CC(N)=O)C(=O)N[C@H](C(=O)NCC(=O)N[C@@H](CO)C(=O)N[C@@H](CC(N)=O)C(=O)N[C@H](C(=O)N[C@@H](Cc1ccc(O)cc1)C(N)=O)[C@@H](C)O)C(C)C)[C@@H](C)O [Example 49, N-alpha-[(S)-4-carboxy-4-(19-carboxynonadecanoylamino)butyryl]-Arg-pramlintide (1-37)] ({C20 diacid-γGlu}-RKCNTATCATQRLANFLVHSSNNFGPILPPTNVGSNTY-NH2; disulfide 3-8; C-terminus assumed) |
